Assay results from US12059462B2, “Composition containing influenza vaccine” (priority 2018, dated 2024).

Experiments:
[1] = tested on: LAH binding monoclonal antibody (#2, #4 and #5); assay: Binding capacity of antibody to LAH epitope, order of formalin treatment; conditions: FIG. 15; H3N2 strain X31; formalin treatment after (Post-fix) or before (Pre-fix) the acidic treatment
[2] = tested on: synthetic peptide (H3) corresponding to a portion (long alpha helix) of the stem portion; conditions: mouse, in vivo, ip

For “membrane fusion-type H3N2 HA split vaccine: HA split vaccine of H3N2 influenza virus (strain X31) subjected to acidic treatment (pH 5.0), then formalin treatment”, which “binding of the LAH binding monoclonal antibody to the vaccine” value [1] is on record?
The value was “more strongly than to the vaccine (Pre-fix)”.

What about the “titer of the anti-LAH antibody in the sera” value [2] of the same substance?
Its value is “higher titer of the anti-LAH antibody than the membrane fusion-type split vaccine (Pre-fix)”.
